What was measured:
Assay type in all cases: biochemical, human
LDL [1] = assay: CuSO4-induced LDL oxidation measured by lipid peroxides formation; conditions: CuSO4 (5 μM)-induced LDL oxidation; > = maximal concentration used did not achieve 50% inhibition
Description: (§1) Stock solutions of 1 mM of purified lycopene or of 10 mg/ml of tomato's oleoresin, were prepared in Tetrahydrofuran (THF, HPLC grade). All procedures were performed in dim light. LDL was incubated with the respective concentrations of tomato's oleoresin or with 3 μM of lycopene (3 μl/ml THF, derived from a stock solution of 1 mM) for 30 minutes at 37° C. in the dark. LDL incubated with THF alone served as control.
(§2) Oxidation of LDL was carried out in a shaking water bath at 37° C. under air, in plastic tubes (1 cm in diameter). For metal ions dependent oxidation LDL was incubated for 4 hours at 37° C. with freshly prepared CuSO4 (5 μM).
(§3) LDL oxidation was determined by measuring the amount of thiobarbituric acid reactive substances (TBARS) (See: Buege J. A. and Aust S. D. Microsomal lipid peroxidation. Methods Enzymol. 1978; 52: 302-310) and by lipid peroxides formation using a commercially available kit.
(§4) LDL (100 μg of protein/ml) was preincubated for 30 min at 37° C. with either vitamin E or lycopene in various forms. LDL oxidation was induced by the addition of 5 μM of CuSO4 and was […] for 30 min at 37° C. LDL oxidaton was measured by the TBARS assay or by measuring the inhibition of the formation of lipid peroxides. Results are shown in FIG. 1 for vitamin E inhibition and FIG. 2 for crystalline lycopene. […]

LDL [2] = assay: CuSO4-induced LDL oxidation measured by TBARS formation; conditions: CuSO4 (5 μM)-induced LDL oxidation; oleoresin concentration as lycopene; read-out: IC50 for the inhibition of TBARS formation
Description: as §1, §2, §3, §4

LDL [3] = assay: Copper ions-induced LDL oxidation, Colby equation data, readout not marked (TBARS / lipid peroxides)
Description: as §1, §2, §3, §4

Molecule	IC50 (LDL [1]) [µM]	IC50 (LDL [2]) [µM]	B = Percent control of lycopene alone (LDL [3]; Experiment 1: 1 μM crystalline lycopene alone) [%]	A = Percent control of vitamin E alone (LDL [3]; 1 μM vitamin E alone) [%]
CC(C)=CCC/C(C)=C/C=C/C(C)=C/C=C/C(C)=C/C=C/C=C(C)/C=C/C=C(C)/C=C/C=C(\C)CCC=C(C)C [Crystalline lycopene, lycopene]	> 50	> 50	0	
Vitamin E	6.5	6		0

— patent publication US6515018B1, “Synergistic compositions for lycopene and Vitamin E for the prevention of LDL oxidation” (Lycored Natural Products Industries Ltd., priority 1997, dated 2003)
